These results are taken from patent US20250270200A1, “CTPS1 INHIBITORS AND USES THEREOF” (Nimbus Clotho, Inc., priority 2022, published 2025).

The experiment has as its target T1, human CTPS1 (Homo sapiens, UniProt P17812).
T1 sequence (P17812 1-591): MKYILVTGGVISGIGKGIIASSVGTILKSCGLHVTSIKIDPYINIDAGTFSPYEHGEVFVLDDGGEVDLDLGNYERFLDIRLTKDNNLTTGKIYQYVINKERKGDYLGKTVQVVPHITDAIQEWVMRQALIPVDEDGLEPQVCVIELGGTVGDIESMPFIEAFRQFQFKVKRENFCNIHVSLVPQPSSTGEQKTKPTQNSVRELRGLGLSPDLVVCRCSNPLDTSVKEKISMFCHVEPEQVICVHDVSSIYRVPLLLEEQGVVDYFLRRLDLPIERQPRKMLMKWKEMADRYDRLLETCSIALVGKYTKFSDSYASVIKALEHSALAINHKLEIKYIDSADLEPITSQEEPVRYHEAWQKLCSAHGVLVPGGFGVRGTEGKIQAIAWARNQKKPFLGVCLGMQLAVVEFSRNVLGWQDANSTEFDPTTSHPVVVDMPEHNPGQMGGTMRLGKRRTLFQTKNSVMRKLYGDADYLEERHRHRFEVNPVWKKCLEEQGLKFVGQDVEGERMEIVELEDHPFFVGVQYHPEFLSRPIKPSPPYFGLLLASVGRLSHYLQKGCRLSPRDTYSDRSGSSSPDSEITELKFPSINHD
Put plainly: ADP-Glo assay, human CTPS1 enzyme inhibition. It is filed as biochemical. The following applies: wild-type human CTPS1, 25 nM enzyme; ADP-Glo; read-out: ADP-Glo_WT_hCTPS1—25 nM_IC50 (IC50). In short, it runs like this:
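ADP-Glo luminescence quantified ADP produced by 25 nM purified human CTPS1 (full length, FLAG-His tagged) at 25° C within the linear phase. Final substrates: ATP 120 μM, UTP 160 μM, GTP 60 μM, L-glutamine 100 μM; 1% DMSO; pH 7.4 HEPES buffer with Mg2+, KCl, DTT. Compound pre-incubated with enzyme 10 min, then with ATP/UTP 10 min.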

Where a name gives a salt, the structure may show the parent alone. Where only a bound is given, the exact number is not on record here.

Regarding `CCOc1ccn2ncc(-c3cnc(C(=O)NCc4cc(NS(=O)(=O)C5CC5)ccn4)s3)c2c1` [I-170, N-((4-(cyclopropanesulfonamido)pyridin-2-yl)methyl)-5-(5-ethoxypyrazolo[1,5-a]pyridin-3-yl)thiazole-2-carboxamide], the IC50 is over 100 nM.
With `CCOc1cncc(-c2ccc(C(=O)NCc3cc(NS(=O)(=O)C4CC4)ccn3)cn2)n1` [I-172, N-((4-(cyclopropanesulfonamido)pyridin-2-yl)methyl)-6-(6-ethoxypyrazin-2-yl)nicotinamide], the IC50 was in the range of 25 to 50 nM.
Take `CCOc1cncc(-c2ccc(C(=O)NCc3cc(NS(=O)(=O)C4CC4)ccn3)cc2F)n1` [I-173, N-((4-(cyclopropanesulfonamido)pyridin-2-yl)methyl)-4-(6-ethoxypyrazin-2-yl)-3-fluorobenzamide]: the IC50 is 5 to 25 nM.
Consider `CCOc1cncc(-c2ccc(C(=O)NCc3cc(NS(=O)(=O)C4CC4)ccn3)c(F)c2F)n1` [I-175, N-((4-(cyclopropanesulfonamido)pyridin-2-yl)methyl)-4-(6-ethoxypyrazin-2-yl)-2,3-difluorobenzamide], for which the IC50 fell in the range of 5 to 25 nM.
For `CCOc1cncc(-c2cnc(C(=O)N[C@H](C)c3cc(NS(=O)(=O)C4CC4)ccn3)s2)n1` [I-176, (R)-N-(1-(4-(cyclopropanesulfonamido)pyridin-2-yl)ethyl)-5-(6-ethoxypyrazin-2-yl)thiazole-2-carboxamide], the IC50 lay within 5 to 25 nM.
With `CCOc1cncc(-c2cnc(C(=O)N[C@@H](C)c3cc(NS(=O)(=O)C4CC4)ccn3)s2)n1` [I-177, (S)-N-(1-(4-(cyclopropanesulfonamido)pyridin-2-yl)ethyl)-5-(6-ethoxypyrazin-2-yl)thiazole-2-carboxamide], the IC50 was in the range of 5 to 25 nM.
With `CCOc1cncc(-c2cnc(C(=O)NCc3ccnc(NS(=O)(=O)C4CC4)n3)s2)n1` [I-178, N-((2-(cyclopropanesulfonamido)pyrimidin-4-yl)methyl)-5-(6-ethoxypyrazin-2-yl)thiazole-2-carboxamide], the IC50 lay in the range of 25 to 50 nM.
Then `CCOc1cncc(-c2cnc(C(=O)NC3(c4cc(NS(=O)(=O)C5CC5)ccn4)CC3)s2)n1` [I-179, N-(1-(4-(cyclopropanesulfonamido)pyridin-2-yl)cyclopropyl)-5-(6-ethoxypyrazin-2-yl)thiazole-2-carboxamide], with 5 to 25 nM.
Consider `CCOc1cncc(-c2cnc(C(=O)NCc3cncc(NS(=O)(=O)C4CC4)n3)s2)n1` [I-180, N-((6-(cyclopropanesulfonamido)pyrazin-2-yl)methyl)-5-(6-ethoxypyrazin-2-yl)thiazole-2-carboxamide], for which the IC50 lay in the range of 5 to 25 nM.
With `O=C(NCc1cc(NS(=O)(=O)C2CC2)ccn1)c1ccc(-c2cnn3ccc(Cl)cc23)cc1F` [I-181, 4-(5-chloropyrazolo[1,5-a]pyridin-3-yl)-N-((4-(cyclopropanesulfonamido)pyridin-2-yl)methyl)-2-fluorobenzamide], the IC50 is 25 to 50 nM.
Turning to `CCOc1cncc(-c2cnc(C(=O)NC3(c4cc(NS(=O)(=O)C5CC5)ccn4)CCN(C)C3)s2)n1` (stereo not drawn) [I-182, N-(3-(4-(cyclopropanesulfonamido)pyridin-2-yl)-1-methylpyrrolidin-3-yl)-5-(6-ethoxypyrazin-2-yl)thiazole-2-carboxamide, formic acid salt], the IC50 lay within 5 to 25 nM.
The value for `CCOc1cncc(-c2cnc(C(=O)N[C@@H](CCN3CCCCC3)c3cccc(NS(=O)(=O)C(F)F)c3)s2)n1` [I-183, (S)-N-(1-(3-((difluoromethyl)sulfonamido)phenyl)-3-(piperidin-1-yl)propyl)-5-(6-ethoxypyrazin-2-yl)thiazole-2-carboxamide] was over 100 nM.
For the compound `CCOc1cncc(-c2cnc(C(=O)N[C@H](CCN3CCCCC3)c3cccc(NS(=O)(=O)C(F)F)c3)s2)n1` [I-184, (R)-N-(1-(3-((difluoromethyl)sulfonamido)phenyl)-3-(piperidin-1-yl)propyl)-5-(6-ethoxypyrazin-2-yl)thiazole-2-carboxamide], the IC50 fell in the range of 5 to 25 nM.
The value for `CCOc1cncc(-c2cnc(C(=O)N[C@@H](CCNC3CC3)c3cc(NS(=O)(=O)C4CC4)ccn3)s2)n1` [I-185, (S)-N-(1-(4-(cyclopropanesulfonamido)pyridin-2-yl)-3-(cyclopropylamino)propyl)-5-(6-ethoxypyrazin-2-yl)thiazole-2-carboxamide] was 50 to 100 nM.
For `CCOc1cncc(-c2cnc(C(=O)N[C@H](CCNC3CC3)c3cc(NS(=O)(=O)C4CC4)ccn3)s2)n1` [I-186, (R)-N-(1-(4-(cyclopropanesulfonamido)pyridin-2-yl)-3-(cyclopropylamino)propyl)-5-(6-ethoxypyrazin-2-yl)thiazole-2-carboxamide], the IC50 fell in the range of 5 to 25 nM.
For the compound `CCOc1cncc(-c2cnc(C(=O)N[C@H](c3cccc(NS(=O)(=O)C(F)F)c3)[C@H]3CCOC3)s2)n1` [I-187, N-((S)-(3-((difluoromethyl)sulfonamido)phenyl)((R)-tetrahydrofuran-3-yl)methyl)-5-(6-ethoxypyrazin-2-yl)thiazole-2-carboxamide], the IC50 was in the range of 5 to 25 nM.
In the case of `CCOc1cncc(-c2cnc(C(=O)N[C@H](c3cccc(NS(=O)(=O)C(F)F)c3)[C@@H]3CCOC3)s2)n1` [I-188, N-((S)-(3-((difluoromethyl)sulfonamido)phenyl)((S)-tetrahydrofuran-3-yl)methyl)-5-(6-ethoxypyrazin-2-yl)thiazole-2-carboxamide], the IC50 is 5 to 25 nM.
Turning to `CCOc1cncc(-c2cnc(C(=O)N[C@@H](c3cccc(NS(=O)(=O)C(F)F)c3)[C@@H]3CCOC3)s2)n1` [I-189, N-((R)-(3-((difluoromethyl)sulfonamido)phenyl)((S)-tetrahydrofuran-3-yl)methyl)-5-(6-ethoxypyrazin-2-yl)thiazole-2-carboxamide], the IC50 was at most 5 nM.
On to `CCOc1cncc(-c2cnc(C(=O)N[C@@H](c3cccc(NS(=O)(=O)C(F)F)c3)[C@H]3CCOC3)s2)n1` [I-190, N-((R)-(3-((difluoromethyl)sulfonamido)phenyl)((R)-tetrahydrofuran-3-yl)methyl)-5-(6-ethoxypyrazin-2-yl)thiazole-2-carboxamide], for which the IC50 fell in the range of 5 to 25 nM.
As to `CCOc1cncc(-c2cnc(C(=O)N[C@@H](C[C@@H]3COCCN3C)c3cccc(NS(=O)(=O)C(F)F)c3)s2)n1` [I-191, N-((S)-1-(3-((difluoromethyl)sulfonamido)phenyl)-2-((R)-4-methylmorpholin-3-yl)ethyl)-5-(6-ethoxypyrazin-2-yl)thiazole-2-carboxamide], the IC50 was in the range of 25 to 50 nM.
The value for `CCOc1cncc(-c2cnc(C(=O)N[C@@H](C[C@H]3COCCN3C)c3cccc(NS(=O)(=O)C(F)F)c3)s2)n1` [I-192, N-((S)-1-(3-((difluoromethyl)sulfonamido)phenyl)-2-((S)-4-methylmorpholin-3-yl)ethyl)-5-(6-ethoxypyrazin-2-yl)thiazole-2-carboxamide] was 5 to 25 nM.
As for `CCOc1cncc(-c2cnc(C(=O)N[C@H](CC3COCCN3C)c3cccc(NS(=O)(=O)C(F)F)c3)s2)n1` (stereo partly drawn) [I-193, N-((1R)-1-(3-((difluoromethyl)sulfonamido)phenyl)-2-(4-methylmorpholin-3-yl)ethyl)-5-(6-ethoxypyrazin-2-yl)thiazole-2-carboxamide], the IC50 lay within 50 to 100 nM.
For the compound `CCOc1cncc(-c2cnc(C(=O)N[C@H](c3cccc(NS(=O)(=O)C(F)F)c3)C3CCOCC3)s2)n1` [I-194, (S)-N-((3-((difluoromethyl)sulfonamido)phenyl)(tetrahydro-2H-pyran-4-yl)methyl)-5-(6-ethoxypyrazin-2-yl)thiazole-2-], the IC50 was 5 to 25 nM.
In the case of `CCOc1cncc(-c2cnc(C(=O)N[C@@H](c3cccc(NS(=O)(=O)C(F)F)c3)C3CCOCC3)s2)n1` [I-195, (R)-N-((3-((difluoromethyl)sulfonamido)phenyl)(tetrahydro-2H-pyran-4-yl)methyl)-5-(6-ethoxypyrazin-2-yl)thiazole-2-carboxamide], the IC50 lay within 5 to 25 nM.
On to `O=C(N[C@H](c1cccc(NS(=O)(=O)C(F)F)c1)C1CCOCC1)c1ncc(-c2cnn3ccc(Cl)cc23)s1` [I-196, (S)-5-(5-chloropyrazolo[1,5-a]pyridin-3-yl)-N-((3-((difluoromethyl)sulfonamido)phenyl)(tetrahydro-2H-pyran-4-yl)methyl)thiazole-2-carboxamide], for which the IC50 lay within 5 to 25 nM.
Take `O=C(N[C@@H](c1cccc(NS(=O)(=O)C(F)F)c1)C1CCOCC1)c1ncc(-c2cnn3ccc(Cl)cc23)s1` [I-197, (R)-5-(5-chloropyrazolo[1,5-a]pyridin-3-yl)-N-((3-((difluoromethyl)sulfonamido)phenyl)(tetrahydro-2H-pyran-4-yl)methyl)thiazole-2-carboxamide]: the IC50 fell in the range of 5 to 25 nM.
Consider `CCOc1cncc(-c2cnc(C(=O)N[C@H](c3cccc(NS(=O)(=O)C(F)F)c3)[C@H]3COCCO3)s2)n1` [I-198, N-((R)-(3-((difluoromethyl)sulfonamido)phenyl)((S)-1,4-dioxan-2-yl)methyl)-5-(6-ethoxypyrazin-2-yl)thiazole-2-carboxamide], for which the IC50 is 5 to 25 nM.
